Reference: patent US20260256870A1, “SKIN COMPOSITION” (Eaderm Co., Ltd., priority 2019, published 2026)
“Also recorded” adds a separate entry of the source. Structures can show the parent of a compound that is named as a salt.

How the values were obtained:
[1] = tested on: skin damage induced by anticancer drugs; test: TEWL after EGF receptor inhibitor administration (Example 9); settings: control mice about 18 months old, 50 mg/kg/day intraperitoneal, day 7 (FIG. 18)
Excerpt: A 0.5% methylcellulose solution of the solvent was similarly administered to the control non-treated group. […] Measurements were taken at specific sites on the back of the mice (two sites symmetrically located on the left side and right side from the center of the spine) using Tewameter TN300 (Courage+Khazaka, Integral Corporation, Germany).

[2] = tested on: skin damage induced by erlotinib; test: Improvement of skin damage caused by erlotinib administration, TEWL (Example 10); type: in vivo, C57BL6N mice; settings: erlotinib 50 mg/kg/day intraperitoneal, 7 weeks old or 6 months old mice (FIG. 19)
Description: Female […] mice (7 weeks old or 6 months old) were acclimatized to the experimental environment, and then hair was removed from their back under anesthesia. […] The control non-administered group received the 0.5% methylcellulose solution of the solvent in the same way. The control group applied with the solvent and the group applied with 200 μM apocynin received an aqueous solution of each preparation once a day, five times a week on the back. To the control solvent application group the solvent (50% ethanol/PBS) of apocynin was similarly applied.

[3] = tested on: back skin; test: Skin elasticity and TEWL after long-term application (Example 14); type: in vivo, hairless mice (HOS: HR-1); settings: three times a week for seven weeks, day 53; retinol 0.1%, apocynin 200 μM (FIG. 23)
Description: TEWL measurements and skin elasticity measurements were performed on the back of each group (at two sites on the left side and right side symmetrically from the center of the spine) 7 weeks after the start of application (day 53). TEWL measurements were performed at specific sites on the back of mice (two sites on the left side and right side symmetrically from the center of the spine). The elasticity of the skin was measured using Cutometer MPA580 (Courage+Khazaka, Integral Corporation, Germany) (parameter settings: 300 mba, 2 sec ON time, 2 sec OFF time), and the average value of the three measurements was used for analysis. By suctioning the skin on the back of the mouse for 2 seconds and then releasing the suction 2 seconds later, the length of the skin stretched was measured at each time point immediately after suctioning, immediately before suction release, and immediately after suction release; and they are return of the skin at the time of suction release (Ua: unit mm), rapid stretching in the initial stage of suctioning (Ue: unit mm), maximum degree of skin stretch just before suction release (Uf: unit mm), and the amount of rapid recovery immediately after suction release (Ur: unit mm). R5-Ur/Ue was set as the index of net elasticity, and R7=Ur/Uf as the index of elasticity. R2=Ua/Uf was set as the index of gross elasticity.

[4] = tested on: UV-induced wrinkles of back skin; test: Wrinkle improvement after UV irradiation (Example 15); type: in vivo, Hairless mice HOS: HR-1; settings: UVA+UVB, retinol 0.1%, apocynin 200 μM, long-term application (FIG. 25)
Excerpt: In a mouse model in which wrinkle formation was induced by long-term exposure to ultraviolet (UVA) light, the present inventors examined the effect of substances that promote the self-renewal ability of epidermal stem cells on the improvement of wrinkles.
Hairless mice HOS: HR-1 females (7 weeks old) were acclimated to the experimental environment and then grouped into the […] groups below, so that their body weight values would be nearly uniform. • No UV irradiation group (n=2). • UV (UVA+UVB) irradiation+solvent application group (n=4) • Ultraviolet (UVA+UVB) irradiation+200 μM apocynin application group (n=4). • UV (UVA+UVB) irradiation+0.1% retinol application group (n=2) […]
For each group of mice from the first to the fourth week after the start of UV irradiation, the back was photographed with a high-resolution three-dimensional image analyzer PRIMOS-CR (Canfield Scientific, Inc., USA). Based on the images obtained, total wrinkle volume (mm^3) and total wrinkle mean depth (μm) were measured with the Primos OMC3_22 software. Skin flexibility was measured using Cutometer MPA580 (Courage+Khazaka, Integral Corporation, Germany), and the value of RO was used as skin flexibility.

[5] = tested on: COL17A1; settings: HaCaT cells, 24 hours after hydrogen peroxide treatment (FIG. 17)
Description: The anticancer agent hydroxyurea was administered to 7-week-old C57BL6 mice three times a month, and the tissues were collected three months later for immunostaining using an antibody for COL17A1. […] In addition, HaCaT cells, which are human epidermal keratinocytes, were irradiated with radiation (20 Gy, 30 Gy) and UV light (20 mJ, 30 mJ) and the cells were collected after 24 and 72 hours, respectively, and Western blotting was performed using an antibody against COL17A1.

[6] = tested on: COL17A1; test: Stabilization of COL17A1 against UV-induced repression
[7] = tested on: COL17A1; test: COL17A1 expression in human epidermal keratinocytes by high content imaging (HCS); type: cell-based; settings: for COL17A1 expression level (control ratio): human epidermal keratinocytes, 48 hours after addition of reagents
Description: The present inventors further searched for substances that induce or maintain the expression of COL17A1. Human epidermal keratinocytes were seeded in 384-well plates, cultured for 48 hours after addition of reagents, immunostained with an anti-COL17A1 antibody and a fluorescently labeled secondary antibody, and then the fluorescence intensity per cell was detected using a high content imaging system (HCS: High Content Screening). In addition to cell counting with DAPI, the expression level of COL17A1 was quantified.

[8] = tested on: human epidermal keratinocytes; test: Colony formation assay using human epidermal keratinocytes; type: cell-based
Excerpt: To test whether COL17A1-mediated SCD maintains clonal proliferation of epidermal stem cell clones, the present inventors used a colony formation assay, which is an in vitro assay said to be the gold standard for assessing the self-renewal ability of epidermal stem cells, including cells in the tail epidermis.

[9] = tested on: full thickness wounds in the skin of rodent tails; test: Full thickness wound healing in tail skin; type: in vivo, mice; settings: day 0, day 14, day 21 (FIG. 12)
Description: To test the above hypothesis, the present inventors performed a full-layer wound healing experiment using the tail skin of aged wild-type mice. […] Forced expression of hCOL17A1 by basal layer keratinocytes in mice also promoted wound healing (FIG. 12). […] To confirm the beneficial effects in vivo, these drugs were administered to full thickness wounds in the skin of rodent tails.

[10] = tested on: UVB-irradiated back skin; test: Barrier function after UVB irradiation (Example 12); type: in vivo, Hairless mice HOS: HR-1; settings: for water content of the stratum corneum after ultraviolet irradiation: UVB 150 mJ/cm^2, fourth day (FIG. 21)
Description: Hairless mice HOS: HR-1 females (7 weeks old) were acclimatized to the experimental environment and then grouped into the 6 groups below, so that the body weight values were nearly uniform. • No ultraviolet irradiation group (n=2) • Ultraviolet (UVB) irradiation+solvent application group (n=4). • Ultraviolet (UVB) irradiation+200 nM apocynin application group (n=4). • Ultraviolet (UVB) irradiation+200 μM apocynin application group (n=4). • Ultraviolet (UVB) irradiation+2 μM Y-27632 application group (n=4). • Ultraviolet (UVB) irradiation+20 μM Y-27632 application group (n=4) In the above solution application group, aqueous solutions of each preparation were applied to hairless mice on their back once a day for five days, starting from the day before ultraviolet irradiation. UVB irradiation was carried out using a Yayoi ultraviolet irradiation system (Y-UV-Lab-K-D5 lamp type) at an intensity of 150 mJ/cm^2 once a day. The stratum corneum water content and TEWL of the irradiated area were measured for each group of mice on the fourth day after the start of ultraviolet irradiation. The measurements were performed using Corneometer CM825 and Tewameter TN300 (Courage+Khazaka, Integral Corporation, Germany) at specific sites on the back of the mice.

[11] = Table 1, fluorescence intensity per cell

SMILES	COL17A1 expression level (control ratio) [7, 11]	Colony area (control ratio) ([8]; Table 1)	Colony number (control ratio) ([8]; Table 1)	also measured
C#Cc1cccc(Nc2ncnc3cc(OCCOC)c(OCCOC)cc23)c1 [Erlotinib]	–	–	–	TEWL [1]: significantly increased; TEWL [2]: significantly increased
CC1=C(/C=C/C(C)=C/C=C/C(C)=C/CO)C(C)(C)CCC1 [Retinol]	–	–	–	TEWL after long-term continuous application [3]: significantly increased; TEWL [4]: significantly increased; TEWL ([4]; listed as retinol): marked increase
OO [hydrogen peroxide]	–	–	–	expression of COL17A1 (Western blot) [5]: marked decrease
CNC(=O)[C@@H](NC(=O)[C@H](CC(C)C)[C@H](O)C(=O)NO)C(C)(C)C [Marimastat]	–	–	–	COL17A1 stability / UV-induced downward repression of COL17A1 [6]: stabilizes COL17A1 and blocks the UV-induced downward repression of COL17A1
c1ccc2c(c1)[I+]c1ccccc1-2 [Diphenyleneiodonium (DPI), Diphenyleneiodonium]	⊚ (one double circle (⊚) represents a 1.2-fold or greater increase)	○	○	–
CC(C)=CCC1=C(O)C(=O)c2ccccc2C1=O [Lapachol]	–	–	–	COL17A1 expression level (control ratio) ([7]; Table 2): ⊚⊚ (two double circles (⊚⊚) in the COL17A1 expression level (control ratio) represent a 2.0-fold or greater increase in the expression level); Colony area (control ratio) ([8]; Table 2): ⊚ (one double circle (⊚) indicates maintenance of 1.0-1.2-fold); Colony number (control ratio) ([8]; Table 2): ⊚ (one double circle (⊚) indicates maintenance of 1.0-1.2-fold)
CN1C(=O)C(Cc2c[nH]c3ccccc23)NC1=S (centres unmarked) [Necrostatin-1]	⊚ (one double circle (⊚) represents a 1.2-fold or greater increase)	⊚ (one double circle (⊚) indicates maintenance of 1.0-1.2-fold)	⊚ (one double circle (⊚) indicates maintenance of 1.0-1.2-fold)	–
O=S(=O)(c1cccc2cnccc12)N1CCCNCC1 [Fasudil (HA-1077), Fasudil]	⊚⊚ (two double circles (⊚⊚) in the COL17A1 expression level (control ratio) represent a 2.0-fold or greater increase in the expression level)	⊚ (one double circle (⊚) indicates maintenance of 1.0-1.2-fold)	⊚ (one double circle (⊚) indicates maintenance of 1.0-1.2-fold)	–
C#C[C@]1(O)CC[C@H]2[C@@H]3CCc4cc(O)ccc4[C@H]3CC[C@@]21C [Ethynyl Estsadiol]	⊚⊚ (two double circles (⊚⊚) in the COL17A1 expression level (control ratio) represent a 2.0-fold or greater increase in the expression level)	⊚ (one double circle (⊚) indicates maintenance of 1.0-1.2-fold)	⊚ (one double circle (⊚) indicates maintenance of 1.0-1.2-fold)	–
OC1(c2ccc(Cl)c(C(F)(F)F)c2)CCN(CCCC(c2ccc(F)cc2)c2ccc(F)cc2)CC1 [Penfluridol]	⊚ (one double circle (⊚) represents a 1.2-fold or greater increase)	⊚ (one double circle (⊚) indicates maintenance of 1.0-1.2-fold)	⊚ (one double circle (⊚) indicates maintenance of 1.0-1.2-fold)	–
CC(=N)NCc1cccc(CN)c1 [1400 W]	○ (one circle (0) represents a 1.0-1.2-fold maintenance)	○	○	–
Cc1ccc(-c2cc(C(F)(F)F)nn2-c2ccc(S(N)(=O)=O)cc2)cc1 [Celecoxib]	⊚ (one double circle (⊚) represents a 1.2-fold or greater increase)	⊚ (one double circle (⊚) indicates maintenance of 1.0-1.2-fold)	⊚ (one double circle (⊚) indicates maintenance of 1.0-1.2-fold)	–
C[C@@H](N)[C@H]1CC[C@H](C(=O)Nc2ccncc2)CC1 [Y-27632]	⊚⊚ (two double circles (⊚⊚) in the COL17A1 expression level (control ratio) represent a 2.0-fold or greater increase in the expression level)	⊚ (one double circle (⊚) indicates maintenance of 1.0-1.2-fold)	⊚ (one double circle (⊚) indicates maintenance of 1.0-1.2-fold)	COL17A1 expression / amount of COL17A1 in cultured keratinocytes compared to the control ([7]; in vitro, HCS (FIG. 15)): maintain or induce the COL17A1 expression; also recorded: induce the COL17A1 expression; number of colonies ([8]; compared to the control, n=3 wells (FIG. 13, FIG. 16)): significantly increased; average size of the top five colonies ([8]; compared to the control, n=3 wells (FIG. 14)): significantly increased; colony size ([8]; human epidermal keratinocytes): significantly increased; number of colonies with a diameter greater than 2 mm ([8]; n=3 wells (FIG. 13 right)): significantly increased; wound repair (unrepaired wound area) [9]: significantly accelerated; wound repair (unrepaired wound area) ([9]; listed as Y27632): significantly promote the wound repair process; water content of the stratum corneum after ultraviolet irradiation ([10]; 2 μM applied): significantly higher; TEWL after ultraviolet irradiation ([10]; 20 μM administration group, UVB, fourth day (FIG. 21)): significantly lower; water content of the stratum corneum after ultraviolet irradiation ([10]; 20 μM applied): significantly higher
Fc1ccc(C(c2ccc(F)cc2)N2CCN(C/C=C/c3ccccc3)CC2)cc1 [Flunarizine Hydrochloride]	⊚ (one double circle (⊚) represents a 1.2-fold or greater increase)	⊚ (one double circle (⊚) indicates maintenance of 1.0-1.2-fold)	⊚ (one double circle (⊚) indicates maintenance of 1.0-1.2-fold)	–
CC(=O)c1ccc2c(c1)Nc1ccccc1S2 [ML171]	○ (one circle (0) represents a 1.0-1.2-fold maintenance)	⊚ (one double circle (⊚) indicates maintenance of 1.0-1.2-fold)	⊚ (one double circle (⊚) indicates maintenance of 1.0-1.2-fold)	–
COc1ccc(-c2coc3cc(O)cc(O)c3c2=O)cc1 [Biochanin A]	⊚ (one double circle (⊚) represents a 1.2-fold or greater increase)	○	○	–
